From US20250320184A1 (SIRONAX LTD., priority 2022, published 2025)

These compounds were tested against T1, SARM1 (50-724) (Homo sapiens, UniProt Q6SZW1) (assay: biochemical).
T1 sequence (Q6SZW1 50-724): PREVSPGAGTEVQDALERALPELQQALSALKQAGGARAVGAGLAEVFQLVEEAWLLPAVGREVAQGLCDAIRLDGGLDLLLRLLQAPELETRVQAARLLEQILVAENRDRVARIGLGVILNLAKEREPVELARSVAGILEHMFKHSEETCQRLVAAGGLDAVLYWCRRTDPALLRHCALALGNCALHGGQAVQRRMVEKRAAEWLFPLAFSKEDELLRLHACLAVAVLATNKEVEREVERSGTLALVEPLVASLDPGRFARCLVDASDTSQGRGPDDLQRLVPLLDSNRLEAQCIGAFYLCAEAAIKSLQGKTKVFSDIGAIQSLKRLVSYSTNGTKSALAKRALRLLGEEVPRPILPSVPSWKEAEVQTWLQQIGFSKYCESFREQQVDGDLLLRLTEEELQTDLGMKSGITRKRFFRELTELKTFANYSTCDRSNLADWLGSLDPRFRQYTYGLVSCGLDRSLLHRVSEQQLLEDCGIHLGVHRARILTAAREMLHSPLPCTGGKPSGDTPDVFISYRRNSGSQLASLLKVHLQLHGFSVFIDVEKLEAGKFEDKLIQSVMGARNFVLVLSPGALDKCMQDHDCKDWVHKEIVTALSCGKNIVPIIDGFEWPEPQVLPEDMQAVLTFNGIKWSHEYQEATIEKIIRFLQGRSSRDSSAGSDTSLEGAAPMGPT
Method: An enzymatic assay was performed in a 384-well plate using Dulbecco's phosphate-buffered saline (PBS) as the reaction buffer. […] The reaction was initiated by adding a mixture of 200 μM nicotinamide mononucleotide (NMN) as activator and 100 μM NAD^+ as substrate. After 1 h of incubation at room temperature, the reaction was terminated with 10 times volume of 70% acetonitrile, then centrifuged at 3800 rpm for 10 min.

SMILES	IC50
CC(Nc1ccc2c(c1)C(=O)NCC2)c1cccc(Cl)c1Cl (racemic) [Example 100, 7-((1-(2,3-dichlorophenyl)ethyl)amino)-3,4-dihydroisoquinolin-1(2H)-one]	100 to 500 nM
CC(Nc1ccc2c(c1)C(=O)NCC2)c1cc(F)cc(Cl)c1 (racemic) [Example 101, 7-((1-(3-chloro-5-fluorophenyl)ethyl)amino)-3,4-dihydroisoquinolin-1(2H)-one]	100 to 500 nM
CC(Nc1ccc2cc[nH]c(=O)c2c1)c1cccc(Cl)c1Cl (racemic) [Example 103, 7-((1-(2,3-dichlorophenyl)ethyl)amino)isoquinolin-1(2H)-one]	< 100 nM
CC(Nc1ccc2c(c1)C(=O)NCC2)c1ccc(Cl)c(Cl)c1 (racemic) [Example 104, 7-((1-(3,4-dichlorophenyl)ethyl)amino)-3,4-dihydroisoquinolin-1(2H)-one]	500 to 1000 nM
Cc1ccc(F)cc1C(C)Nc1ccc2c(c1)C(=O)NCC2 (racemic) [Example 105, 7-((1-(5-fluoro-2-methylphenyl)ethyl)amino)-3,4-dihydroisoquinolin-1(2H)-one]	100 to 500 nM
CC(Nc1ccc2c(c1)C(=O)NCC2)c1cccc(F)c1F (racemic) [Example 106, 7-((1-(2,3-difluorophenyl)ethyl)amino)-3,4-dihydroisoquinolin-1(2H)-one]	> 1000 nM
CC(Nc1ccc2cc[nH]c(=O)c2c1)c1cnc(Cl)c(Cl)c1 (racemic) [Example 107, 7-((1-(5,6-dichloropyridin-3-yl)ethyl)amino)isoquinolin-1(2H)-one]	100 to 500 nM
CC(Nc1ccc2cc[nH]c(=O)c2c1)c1cccc(Cl)c1 (racemic) [Example 108, 7-((1-(3-chlorophenyl)ethyl)amino)isoquinolin-1(2H)-one]	100 to 500 nM
CCC(Nc1ccc2c(c1)C(=O)NCC2)c1cc(C)cc(F)c1 (racemic) [Example 109, 7-((1-(3-fluoro-5-methylphenyl)propyl)amino)-3,4-dihydroisoquinolin-1(2H)-one]	100 to 500 nM
CC(Nc1ccc2cc[nH]c(=O)c2c1)c1ccccc1Cl (racemic) [Example 110, 7-((1-(2-chlorophenyl)ethyl)amino)isoquinolin-1(2H)-one]	100 to 500 nM
CC(Nc1ccc2cc[nH]c(=O)c2c1)c1cccc(F)c1 (racemic) [Example 113, 7-((1-(3-fluorophenyl)ethyl)amino)isoquinolin-1(2H)-one]	500 to 1000 nM
CC(Nc1ccc2cc[nH]c(=O)c2c1)c1cc(F)cc(F)c1 (racemic) [Example 114, 7-((1-(3,5-difluorophenyl)ethyl)amino)isoquinolin-1(2H)-one]	100 to 500 nM
CC(Nc1ccc2cc[nH]c(=O)c2c1)c1ccccc1F (racemic) [Example 115, 7-((1-(2-fluorophenyl)ethyl)amino)isoquinolin-1(2H)-one]	> 1000 nM
CC(Nc1ccc2cc[nH]c(=O)c2c1)c1ccc(Cl)cc1 (racemic) [Example 116, 7-((1-(4-chlorophenyl)ethyl)amino)isoquinolin-1(2H)-one]	> 1000 nM
COc1ncc(C(C)Nc2ccc3cc[nH]c(=O)c3c2)cc1Cl (racemic) [Example 117, 7-((1-(5-chloro-6-methoxypyridin-3-yl)ethyl)amino)isoquinolin-1(2H)-one]	100 to 500 nM
CC(Nc1ccc2cc[nH]c(=O)c2c1)c1nccc(Cl)c1Cl (racemic) [Example 118, 7-((1-(3,4-dichloropyridin-2-yl)ethyl)amino)isoquinolin-1(2H)-one]	< 100 nM
CC(Nc1ccc2c(c1)C(=O)NCC2)c1cnc(Cl)c(Cl)c1 (racemic) [Example 119, 7-((1-(5,6-dichloropyridin-3-yl)ethyl)amino)-3,4-dihydroisoquinolin-1(2H)-one]	500 to 1000 nM

Results, then the compound that gave them:

IC50	SMILES
> 1000 nM	CC(Nc1ccc2c(c1)C(=O)NC2)c1cccc(Cl)c1Cl (racemic) [Example 120, 6-((1-(2,3-dichlorophenyl)ethyl)amino)isoindolin-1-one]
500 to 1000 nM	CC(Nc1ccc2c(c1)NC(=O)CC2)c1cccc(Cl)c1Cl (racemic) [Example 121, 7-((1-(2,3-dichlorophenyl)ethyl)amino)-3,4-dihydroquinolin-2(1H)-one]
500 to 1000 nM	CC(Nc1ccc2cc[nH]c(=O)c2c1)c1cc(Cl)cnc1Cl (racemic) [Example 122, 7-((1-(2,5-dichloropyridin-3-yl)ethyl)amino)isoquinolin-1(2H)-one]
> 1000 nM	Cc1ccc(C(C)Nc2ccc3c(c2)C(=O)NCC3)cc1F (racemic) [Example 123, 7-((1-(3-fluoro-4-methylphenyl)ethyl)amino)-3,4-dihydroisoquinolin-1(2H)-one]
500 to 1000 nM	CCCC(Nc1ccc2c(c1)C(=O)NCC2)c1cc(C)cc(F)c1 (racemic) [Example 125, 7-((1-(3-fluoro-5-methylphenyl)butyl)amino)-3,4-dihydroisoquinolin-1(2H)-one]
100 to 500 nM	CCC(Nc1ccc2cc[nH]c(=O)c2c1)c1cccc(Cl)c1 (racemic) [Example 126, 7-((1-(3-chlorophenyl)propyl)amino)isoquinolin-1(2H)-one]
> 1000 nM	Cc1cc(F)cc(C(Cc2ccccc2)Nc2ccc3c(c2)C(=O)NCC3)c1 (racemic) [Example 127, 7-((1-(3-fluoro-5-methylphenyl)-2-phenylethyl)amino)-3,4-dihydroisoquinolin-1(2H)-one]
< 100 nM	CC(Nc1ccc2nc[nH]c(=O)c2c1)c1cccc(Cl)c1Cl (racemic) [Example 128, 6-((1-(2,3-dichlorophenyl)ethyl)amino)quinazolin-4(3H)-one]
500 to 1000 nM	CC(Nc1ccc2cccnc2c1)c1cccc(Cl)c1Cl (racemic) [Example 129, N-(1-(2,3-dichlorophenyl)ethyl)quinolin-7-amine]
100 to 500 nM	CC(Nc1ccc2cc[nH]c(=O)c2c1)c1sc(Cl)nc1Cl (racemic) [Example 130, 7-((1-(2,4-dichlorothiazol-5-yl)ethyl)amino)isoquinolin-1(2H)-one]
100 to 500 nM	CC(Nc1ccc2cc[nH]c(=O)c2c1)c1ccnc(Cl)c1Cl (racemic) [Example 131, 7-((1-(2,3-dichloropyridin-4-yl)ethyl)amino)isoquinolin-1(2H)-one]
< 100 nM	CC(Nc1ccc2cc[nH]c(=O)c2c1)c1cc(Cl)ccc1Cl (racemic) [Example 132, 7-((1-(2,5-dichlorophenyl)ethyl)amino)isoquinolin-1(2H)-one]
100 to 500 nM	CC(Nc1ccc2ncn(C)c(=O)c2c1)c1cccc(Cl)c1Cl (racemic) [Example 133, 6-((1-(2,3-dichlorophenyl)ethyl)amino)-3-methylquinazolin-4(3H)-one]
> 1000 nM	CC(Nc1ccc2ccccc2n1)c1cccc(Cl)c1Cl (racemic) [Example 134, N-(1-(2,3-dichlorophenyl)ethyl)quinolin-2-amine]
< 100 nM	CC(Nc1ccc2cc[nH]c(=O)c2c1)c1cc(F)ccc1Cl (racemic) [Example 135, 7-((1-(2-chloro-5-fluorophenyl)ethyl)amino)isoquinolin-1(2H)-one]
< 100 nM	CC(Nc1ccc2cc[nH]c(=O)c2c1)c1cc(F)cc(Cl)c1Cl (racemic) [Example 136, 7-((1-(2,3-dichloro-5-fluorophenyl)ethyl)amino)isoquinolin-1(2H)-one]
